For orientation: Papp means a coefficient for how fast a substance crosses the barrier. Lower therefore signals slow passage.

The nature of the data set: Parallel artificial membrane permeability assay (PAMPA). The conditions noted are these: GIT PAMPA Double Sink. Format: in vitro ADME. The protocol:
Simulated intestinal fluid (SIF) was prepared by dissolving 3 mM sodium taurocholate and 0.1% (w/v) pancreatin in phosphate buffer (final pH = 7.0). The solubility of acacetin was measured by adding excessive amounts of acacetin into glass vials containing 1.5 mL of water, pH 7.4 phosphate buffer, SGF, and SIF. […] The samples were centrifuged at 16,000× g for 5 min, and the supernatant was passed through a 0.20-μm syringe filter to remove excess acacetin. Further, the concentration of acacetin in the filtrate was determined using the LC-MS/MS method. […] Finally, the acacetin concentrations in the octanol and water layers were determined using the LC-MS/MS method. […] The PAMPA was conducted using a commercially available PAMPA kit (GIT PAMPA Double Sink; pION Inc., Massachusetts, MA, USA) according to the manufacturer's protocol. The permeability was calculated using pION PAMPA Explorer ver. 3.8 software (pION Inc., Massachusetts, MA, USA).

In turn, `CNC(=C[N+](=O)[O-])NCCSCc1ccc(CN(C)C)o1` [ranitidine, reference compound] came in with an apparent permeability coefficient (Papp) of 0.411 ×10⁻⁶ cm/s.
